Measured values reported in ChEMBL document CHEMBL4428125, “8-Substituted 1,3-dimethyltetrahydropyrazino[2,1-f]purinediones: Water-soluble adenosine receptor antagonists and monoamine oxidase B inhibitors” (Bioorg Med Chem, 2016).
In brackets after ≈: the same amount, converted by molar mass.

Assays:
[1] = molecular target: T1, Adenosine receptor A2b (Homo sapiens) (UniProt P29275); test: Displacement of [3H]PSB-603 from human A2B receptor expressed in CHO cell membrane at 1 uM relative to control; type: cell membranes
T1 sequence (whole entry): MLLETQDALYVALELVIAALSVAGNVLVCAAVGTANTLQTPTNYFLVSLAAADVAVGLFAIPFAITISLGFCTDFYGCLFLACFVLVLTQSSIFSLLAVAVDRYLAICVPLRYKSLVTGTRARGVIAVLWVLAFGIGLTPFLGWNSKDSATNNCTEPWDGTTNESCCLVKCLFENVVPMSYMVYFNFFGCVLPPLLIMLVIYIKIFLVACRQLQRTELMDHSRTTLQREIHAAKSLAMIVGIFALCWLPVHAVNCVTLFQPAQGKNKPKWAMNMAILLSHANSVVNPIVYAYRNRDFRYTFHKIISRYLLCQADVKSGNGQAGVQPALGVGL

[2] = molecular target: T2, Adenosine receptor A3 (Homo sapiens) (UniProt P0DMS8); test: Displacement of [3H]PSB-11 from human A3 receptor expressed in CHO cell membrane at 3 uM by liquid scintillation counting method relative to control relative to control; type: cell membranes
T2 sequence (whole entry): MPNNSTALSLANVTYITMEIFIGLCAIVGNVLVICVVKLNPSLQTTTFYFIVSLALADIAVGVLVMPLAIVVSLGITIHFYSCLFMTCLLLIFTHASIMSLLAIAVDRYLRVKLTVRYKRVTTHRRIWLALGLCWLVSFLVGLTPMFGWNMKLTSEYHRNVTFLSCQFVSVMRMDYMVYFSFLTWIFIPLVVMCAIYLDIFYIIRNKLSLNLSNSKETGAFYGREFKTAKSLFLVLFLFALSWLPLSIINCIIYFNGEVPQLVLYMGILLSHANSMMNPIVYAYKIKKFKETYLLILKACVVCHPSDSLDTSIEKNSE

[3] = molecular target: T3, Amine oxidase [flavin-containing] B (Homo sapiens, UniProt P27338); test: Inhibition of recombinant human MAO-B expressed in baculovirus infected BTI insect cells preincubated for 30 mins followed by addition of p-tyramine as substrate measured over 45 mins by Amplex Red MAO assay
T3 sequence (P27338 whole entry): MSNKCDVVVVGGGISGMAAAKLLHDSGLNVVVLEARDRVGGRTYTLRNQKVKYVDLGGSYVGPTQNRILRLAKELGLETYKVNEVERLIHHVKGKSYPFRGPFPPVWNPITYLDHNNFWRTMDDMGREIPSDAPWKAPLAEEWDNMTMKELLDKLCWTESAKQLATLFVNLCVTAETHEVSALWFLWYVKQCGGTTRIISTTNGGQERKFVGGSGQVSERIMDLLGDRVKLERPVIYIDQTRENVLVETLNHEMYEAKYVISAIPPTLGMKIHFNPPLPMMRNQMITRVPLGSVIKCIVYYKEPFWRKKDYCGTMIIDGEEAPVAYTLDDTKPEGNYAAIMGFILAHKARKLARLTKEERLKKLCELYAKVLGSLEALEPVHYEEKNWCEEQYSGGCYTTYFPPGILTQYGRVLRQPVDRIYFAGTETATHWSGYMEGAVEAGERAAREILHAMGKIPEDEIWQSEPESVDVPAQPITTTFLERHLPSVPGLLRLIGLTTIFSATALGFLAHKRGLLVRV

[4] = molecular target: Adenosine receptor A2a (Rattus norvegicus) (UniProt P30543); test: Displacement of [3H]MSX from A2A receptor in rat brain striatum membranes at 1 uM measured after 30 mins by liquid scintillation counting method relative to control; type: cell membranes
[5] = molecular target: T4, Adenosine receptor A1 (Rattus norvegicus) (UniProt P25099); test: Displacement of [3H]CCPA from A1 receptor in rat brain cortex membranes at 1.5 uM by liquid scintillation counting method; type: cell membranes
T4 sequence (whole entry): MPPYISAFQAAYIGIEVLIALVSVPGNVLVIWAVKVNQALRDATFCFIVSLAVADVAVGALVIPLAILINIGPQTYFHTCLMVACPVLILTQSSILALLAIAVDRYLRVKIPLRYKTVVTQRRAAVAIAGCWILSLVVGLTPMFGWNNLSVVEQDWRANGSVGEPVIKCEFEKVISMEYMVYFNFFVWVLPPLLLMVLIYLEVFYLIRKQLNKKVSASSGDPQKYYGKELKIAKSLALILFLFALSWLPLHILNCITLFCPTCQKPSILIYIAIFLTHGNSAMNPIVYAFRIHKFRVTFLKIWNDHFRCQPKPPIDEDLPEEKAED

Adenosine receptor A3 = molecular target: T5, Adenosine receptor A3 (Homo sapiens, UniProt P0DMS8); test: Displacement of [3H]PSB-11 from human A3 receptor expressed in CHO cell membrane by liquid scintillation counting method relative to control; type: cell membranes
T5 sequence (P0DMS8 whole entry): T2 sequence (whole entry)

Adenosine receptor A2b = molecular target: T6, Adenosine receptor A2b (Homo sapiens, UniProt P29275); test: Displacement of [3H]PSB-603 from human A2B receptor expressed in CHO cell membrane; type: cell membranes
T6 sequence (P29275 whole entry): T1 sequence (whole entry)

Adenosine receptor A1 [6] = molecular target: T7, Adenosine receptor A1 (Rattus norvegicus, UniProt P25099); test: Displacement of [3H]CCPA from A1 receptor in rat brain cortex membranes by liquid scintillation counting method; type: cell membranes
T7 sequence (P25099 whole entry): T4 sequence (whole entry)

Adenosine receptor A2a [7] = molecular target: Adenosine receptor A2a (Rattus norvegicus, UniProt P30543); test: Displacement of [3H]MSX from A2A receptor in rat brain striatum membranes measured after 30 mins by liquid scintillation counting method; type: cell membranes
[8] = molecular target: T8, Amine oxidase [flavin-containing] A (Homo sapiens, UniProt P21397); test: Inhibition of recombinant human MAO-A expressed in baculovirus infected BTI insect cells preincubated for 30 mins followed by addition of p-tyramine as substrate measured over 45 mins by Amplex Red MAO assay
T8 sequence (P21397 whole entry): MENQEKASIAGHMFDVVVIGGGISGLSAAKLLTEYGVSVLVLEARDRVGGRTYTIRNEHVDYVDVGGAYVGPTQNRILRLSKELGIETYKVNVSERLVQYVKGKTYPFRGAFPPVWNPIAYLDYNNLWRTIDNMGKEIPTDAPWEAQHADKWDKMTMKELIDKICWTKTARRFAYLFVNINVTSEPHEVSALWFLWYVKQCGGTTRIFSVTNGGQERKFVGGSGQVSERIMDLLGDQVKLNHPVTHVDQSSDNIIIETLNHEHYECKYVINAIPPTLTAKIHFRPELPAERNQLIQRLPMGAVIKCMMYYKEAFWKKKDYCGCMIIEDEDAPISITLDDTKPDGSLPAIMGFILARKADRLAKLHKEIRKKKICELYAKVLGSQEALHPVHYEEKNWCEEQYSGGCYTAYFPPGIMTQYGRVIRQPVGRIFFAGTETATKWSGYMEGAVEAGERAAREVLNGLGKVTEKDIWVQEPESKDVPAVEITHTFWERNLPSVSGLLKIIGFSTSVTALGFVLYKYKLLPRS

[9] = molecular target: T3, Amine oxidase [flavin-containing] B; test: Inhibition of recombinant human MAO-B expressed in baculovirus infected BTI insect cells at 10 uM preincubated for 30 mins followed by addition of p-tyramine as substrate measured over 45 mins by Amplex Red MAO assay relative to control; details: 0.75 h
[10] = molecular target: T8, Amine oxidase [flavin-containing] A; test: Inhibition of recombinant human MAO-A expressed in baculovirus infected BTI insect cells at 10 uM preincubated for 30 mins followed by addition of p-tyramine as substrate measured over 45 mins by Amplex Red MAO assay relative to control; details: 0.75 h
[11] = molecular target: T2, Adenosine receptor A3 (Homo sapiens); test: Displacement of [3H]PSB-11 from human A3 receptor expressed in CHO cell membrane at 10 uM by liquid scintillation counting method relative to control relative to control; type: cell membranes
[12] = Thermodynamic solubility of the compound at pH 7.4; type: physicochemical; details: buffer, read-out: Therm_solubility
Adenosine receptor A2a [13] = molecular target: Adenosine receptor A2a (Homo sapiens, UniProt P29274); test: Displacement of [3H]MSX from human A2A receptor measured after 30 mins by liquid scintillation counting method
Adenosine receptor A1 [14] = molecular target: T9, Adenosine receptor A1 (Homo sapiens, UniProt P30542); test: Displacement of [3H]CCPA from human A1 receptor expressed in CHO cell membrane by liquid scintillation counting method; type: cell membranes
T9 sequence (P30542 whole entry): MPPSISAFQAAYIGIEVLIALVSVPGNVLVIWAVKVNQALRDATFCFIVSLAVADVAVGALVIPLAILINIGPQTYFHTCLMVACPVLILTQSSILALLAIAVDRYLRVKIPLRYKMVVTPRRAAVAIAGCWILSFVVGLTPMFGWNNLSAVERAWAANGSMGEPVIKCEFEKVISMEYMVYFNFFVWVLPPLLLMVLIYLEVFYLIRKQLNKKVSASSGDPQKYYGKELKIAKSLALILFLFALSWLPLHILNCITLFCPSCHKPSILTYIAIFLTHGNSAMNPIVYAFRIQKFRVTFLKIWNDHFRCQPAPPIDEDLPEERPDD

[15] = Thermodynamic solubility of the compound at pH 1; type: physicochemical; details: buffer, read-out: Therm_solubility
[16] = Thermodynamic solubility of the compound at pH 4; type: physicochemical; details: buffer, read-out: Therm_solubility
[17] = molecular target: T1, Adenosine receptor A2b (Homo sapiens); test: Displacement of [3H]PSB-603 from human A2B receptor expressed in CHO cell membrane at 0.3 uM relative to control; type: cell membranes

Sequence of Adenosine receptor A2a (Rattus norvegicus, UniProt P30543) (P30543 whole entry): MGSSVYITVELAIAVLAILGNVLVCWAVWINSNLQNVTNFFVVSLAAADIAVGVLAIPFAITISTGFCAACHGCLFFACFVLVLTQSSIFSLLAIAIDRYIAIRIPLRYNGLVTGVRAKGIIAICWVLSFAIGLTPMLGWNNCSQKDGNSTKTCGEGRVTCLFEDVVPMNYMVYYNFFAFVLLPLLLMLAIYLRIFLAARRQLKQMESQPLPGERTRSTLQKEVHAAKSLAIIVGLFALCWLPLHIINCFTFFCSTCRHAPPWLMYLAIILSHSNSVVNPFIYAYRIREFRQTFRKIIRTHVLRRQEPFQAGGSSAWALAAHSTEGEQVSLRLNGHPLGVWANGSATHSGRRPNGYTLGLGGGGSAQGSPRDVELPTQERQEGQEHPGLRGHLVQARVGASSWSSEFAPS
Sequence of Adenosine receptor A2a (Rattus norvegicus) (P30543 whole entry): as above
Sequence of Adenosine receptor A2a (Homo sapiens, UniProt P29274) (P29274 whole entry): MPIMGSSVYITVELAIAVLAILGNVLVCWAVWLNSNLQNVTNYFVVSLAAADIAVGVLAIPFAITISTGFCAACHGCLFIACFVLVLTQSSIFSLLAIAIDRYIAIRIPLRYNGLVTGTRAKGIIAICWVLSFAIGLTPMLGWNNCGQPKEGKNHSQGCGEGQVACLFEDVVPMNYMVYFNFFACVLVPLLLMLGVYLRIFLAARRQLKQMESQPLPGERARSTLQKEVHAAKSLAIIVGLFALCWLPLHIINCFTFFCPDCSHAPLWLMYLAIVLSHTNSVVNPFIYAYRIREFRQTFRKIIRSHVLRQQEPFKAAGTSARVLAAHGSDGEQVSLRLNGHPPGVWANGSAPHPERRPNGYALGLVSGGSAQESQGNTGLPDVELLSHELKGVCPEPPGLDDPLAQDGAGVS

Row | Compound | Activity [1] | Activity [2] | IC50 [3] | Activity [4] | Activity [5] | Ki (Adenosine receptor A3) | Ki (Adenosine receptor A2b) | Ki (Adenosine receptor A1 [6]) | Ki (Adenosine receptor A2a [7]) | IC50 [8] | inhibition at 10 µM [9] | inhibition at 10 µM [10] | Activity [11] | solubility thermodynamic [12] | Ki (Adenosine receptor A2a [13]) | Ki (Adenosine receptor A1 [14]) | solubility thermodynamic [15] | solubility thermodynamic [16] | Activity [17]
1 | Cn1c(=O)c2c(nc3n2CCN(C2Cc4ccccc4C2)C3)n(C)c1=O | 13% | 11% | 7.59 µM | 26% | 12% | > 3 µM | > 1000 nM | > 1500 nM | > 10000 nM |  |  |  |  |  |  |  |  |  | 
2 | Cn1c(=O)c2c(nc3n2CCN(Cc2csc(-c4cccc(Cl)c4)n2)C3)n(C)c1=O | 6% |  | > 10 µM |  |  | > 10 µM | > 1000 nM | 437 nM | 160 nM | > 10 µM | -2% | -13% | 40% | 2 µg/mL (≈ 4.52 µM) | 363 nM | 73 nM |  |  | 
3 | Cn1c(=O)c2c(nc3n2CCN(Cc2csc(-c4ccc(Cl)cc4)n2)C3)n(C)c1=O | 17% |  |  |  |  | > 10 µM | > 1000 nM | 76 nM | 62 nM | > 10 µM | 47% | 3% | 43% | < 0.5 µg/mL | 346 nM | 492 nM |  |  | 
4 | COc1ccc(Br)cc1CCN1CCn2c(nc3c2c(=O)n(C)c(=O)n3C)C1 | 8% | 14% | > 10 µM | 27% | 3% | > 3 µM | > 1000 nM | > 1500 nM | > 1000 nM | > 10 µM | 3% | 34% |  | < 0.5 µg/mL |  |  | 300 µg/mL (≈ 669 µM) | < 0.5 µg/mL | 
5 | Cn1c(=O)c2c(nc3n2CCN(C2CCc4ccccc42)C3)n(C)c1=O (racemic) |  |  | 2.13 µM |  | 32% | > 10 µM | > 300 nM | > 1500 nM | 4210 nM |  |  |  | 45% | < 0.5 µg/mL |  |  | 1000 µg/mL (≈ 2850 µM) | 1 µg/mL (≈ 2.85 µM) | 10%
6 | Cn1c(=O)c2c(nc3n2CCN(CCc2ccc4c(c2)OCO4)C3)n(C)c1=O | 12% | 9% | > 10 µM |  | 5% | > 3 µM | > 1000 nM | > 1500 nM | 6170 nM |  | 24% |  |  | < 0.5 µg/mL |  |  | 300 µg/mL (≈ 782 µM) | 1 µg/mL (≈ 2.61 µM) | 
